Laboratory results published in ChEMBL document CHEMBL3421575, “Cyclopropyl-containing positive allosteric modulators of metabotropic glutamate receptor subtype 5” (Bioorg Med Chem Lett, 2015).

Experiments:
[1] = Cytotoxicity against mouse BV2 cells assessed as cell viability by cytotox nonradioactive assay; format: cell-based; settings: bv-2
mGluR5 = test: Selectivity index, ratio of cytotoxicity for mouse BV2 cells to IC50 for mGluR5 in mouse BV2 cells; format: toxicity, cell-based, BV-2; settings: read-out: Selectivity Index
[2] = target: Metabotropic glutamate receptor 5 (Mus musculus, UniProt Q3UVX5); test: Positive allosteric modulation at mGluR5 in mouse BV2 cells assessed as inhibition of LPS-induced NO production incubated for 1 hr prior to LPS challenge measured after 24 hrs by Griess assay; format: cell-based, BV-2
Chain of Metabotropic glutamate receptor 5 (Q3UVX5 whole entry): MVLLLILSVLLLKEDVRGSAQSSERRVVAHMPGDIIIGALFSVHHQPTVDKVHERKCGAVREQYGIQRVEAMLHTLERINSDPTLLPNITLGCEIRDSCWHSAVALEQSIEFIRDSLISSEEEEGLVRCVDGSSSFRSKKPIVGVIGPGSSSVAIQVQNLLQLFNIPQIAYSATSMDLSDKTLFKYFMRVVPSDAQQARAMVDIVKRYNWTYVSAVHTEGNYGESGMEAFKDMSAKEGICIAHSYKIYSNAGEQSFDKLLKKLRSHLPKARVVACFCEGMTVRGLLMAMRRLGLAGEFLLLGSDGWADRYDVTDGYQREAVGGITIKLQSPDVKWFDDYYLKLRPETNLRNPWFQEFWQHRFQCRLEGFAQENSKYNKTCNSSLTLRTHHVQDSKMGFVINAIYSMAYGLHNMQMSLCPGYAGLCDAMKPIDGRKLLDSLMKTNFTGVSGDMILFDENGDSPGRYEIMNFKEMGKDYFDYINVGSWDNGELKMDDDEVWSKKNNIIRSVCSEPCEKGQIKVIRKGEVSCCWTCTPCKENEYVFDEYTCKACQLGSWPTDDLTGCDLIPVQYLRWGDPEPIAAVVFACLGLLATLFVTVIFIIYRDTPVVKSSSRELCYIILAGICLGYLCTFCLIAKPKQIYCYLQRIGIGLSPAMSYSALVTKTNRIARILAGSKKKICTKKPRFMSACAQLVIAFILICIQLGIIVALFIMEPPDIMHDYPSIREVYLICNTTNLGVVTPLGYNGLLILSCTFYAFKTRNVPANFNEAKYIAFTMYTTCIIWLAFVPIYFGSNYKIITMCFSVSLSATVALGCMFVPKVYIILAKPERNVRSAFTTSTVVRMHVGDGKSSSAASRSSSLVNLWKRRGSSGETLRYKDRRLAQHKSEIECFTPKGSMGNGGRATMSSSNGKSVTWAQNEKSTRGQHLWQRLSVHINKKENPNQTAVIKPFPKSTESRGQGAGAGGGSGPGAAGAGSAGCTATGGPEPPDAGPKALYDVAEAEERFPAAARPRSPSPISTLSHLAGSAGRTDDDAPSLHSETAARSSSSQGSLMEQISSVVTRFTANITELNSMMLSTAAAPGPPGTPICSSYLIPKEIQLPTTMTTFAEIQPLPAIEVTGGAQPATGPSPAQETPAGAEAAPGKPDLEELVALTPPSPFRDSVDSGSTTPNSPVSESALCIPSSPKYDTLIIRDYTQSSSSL

`O=C(N[C@H]1C[C@@H]1c1cccc(F)c1)c1ccc([N+](=O)[O-])cc1` (racemic) showed a Cytotoxic concentration [1] of 200 µM, a selectivity ratio (mGluR5) of 1.02 and an IC50 [2] of 200 µM.
For `Fc1cccc(/C=N/N=C/c2cccc(F)c2)c1`, the Cytotoxic concentration [1] was 500 µM.
`COc1cc(Br)ccc1NC(=O)[C@H]1C[C@@H]1c1cccc(F)c1` (racemic) showed a Cytotoxic concentration [1] of 1000 µM, a selectivity ratio (mGluR5) of 21.8 and an IC50 [2] of 46 µM.
Work on `O=C(Nc1nc2ccccc2s1)[C@H]1C[C@@H]1c1cccc(F)c1` (racemic) yielded a Cytotoxic concentration [1] of 300 µM, a selectivity ratio (mGluR5) of 6.49 and an IC50 [2] of 46 µM.
With `O=C(Nc1ccc(F)cc1)[C@H]1C[C@@H]1c1cccc(F)c1` (racemic) the Cytotoxic concentration [1] was 1000 µM, the selectivity ratio (mGluR5) was 6.25 and the IC50 [2] was 160 µM.
With `COc1cc(Br)ccc1NC(=O)[C@H]1C[C@@H]1c1cccc(Cl)c1` (racemic) the Cytotoxic concentration [1] was 1000 µM, the selectivity ratio (mGluR5) was 4.37 and the IC50 [2] was 230 µM.
Work on `O=C(Nc1nc2ccccc2[nH]1)[C@H]1C[C@@H]1c1cccc(F)c1` (racemic) yielded a Cytotoxic concentration [1] of 300 µM, a selectivity ratio (mGluR5) of 14.6 and an IC50 [2] of 21 µM.
Compound `O=C(Nc1ccccc1Cl)[C@H]1C[C@@H]1c1cccc(Cl)c1` (relative stereo) has a Cytotoxic concentration [1] of 1000 µM, a selectivity ratio (mGluR5) of 14.1 and an IC50 [2] of 71 µM.
`O=C(Nc1ccccc1Cl)[C@H]1C[C@@H]1c1cccc(F)c1` (racemic) gave a Cytotoxic concentration [1] of 1000 µM, a selectivity ratio (mGluR5) of 5.68 and an IC50 [2] of 180 µM.
Work on `O=C(Nc1ccccc1F)[C@H]1C[C@@H]1c1cccc(F)c1` (racemic) yielded a Cytotoxic concentration [1] of 1000 µM, a selectivity ratio (mGluR5) of 4.76 and an IC50 [2] of 210 µM.
For `O=C(N[C@H]1C[C@@H]1c1cccc(F)c1)c1cccc(Cl)c1` (relative stereo), the Cytotoxic concentration [1] was 1000 µM, the selectivity ratio (mGluR5) was 5.03 and the IC50 [2] was 200 µM.
In the case of `O=C(N[C@H]1C[C@@H]1c1cccc(F)c1)c1cccc(F)c1` (racemic), the Cytotoxic concentration [1] is reported as 1000 µM, the selectivity ratio (mGluR5) is reported as 33 and the IC50 [2] is reported as 30 µM.
Compound `O=C(Nc1ccc(F)cc1)[C@H]1C[C@@H]1c1cccc(Cl)c1` (relative stereo) has a Cytotoxic concentration [1] of 1000 µM, a selectivity ratio (mGluR5) of 17.4 and an IC50 [2] of 58 µM.
Work on `O=C(Nc1nc2ccccc2[nH]1)[C@H]1C[C@@H]1c1cccc(Cl)c1` (racemic) yielded a Cytotoxic concentration [1] of 400 µM, a selectivity ratio (mGluR5) of 5.96 and an IC50 [2] of 67 µM.
Work on `O=C(N[C@H]1C[C@@H]1c1cccc(F)c1)c1cccc([N+](=O)[O-])c1` (racemic) yielded a Cytotoxic concentration [1] of 400 µM, a selectivity ratio (mGluR5) of 3.01 and an IC50 [2] of 130 µM.
In the case of `O=C(N[C@H]1C[C@@H]1c1cccc(F)c1)c1ccccn1` (racemic), the Cytotoxic concentration [1] is reported as 800 µM, the selectivity ratio (mGluR5) is reported as 4.6 and the IC50 [2] is reported as 170 µM.
